Measurements published in patent publication US20160097044A1, “Antimicrobial Enzyme Fusions Reduce Resistance and Kill Intracellular Staphylococcus aureus” (The United States of America, as Represented by the …, priority 2014, published 2016).

Experiments:
[1] = tested on: S. aureus Newbould 305; assay: Turbidity reduction assay; assay type: cell-based; conditions: 1 μM enzyme, cells at OD600nm 1.0, FIG. 6a
Method: (§1) FIG. 6a depicts the specific activity of peptidoglycan hydrolase fusion constructs in vitro in a turbidity reduction assay with S. aureus Newbould 305 resuspended in lysis buffer to an OD600nm of 1.0 and treated with 1 μM final concentrations of each peptidoglycan hydrolase. The maximum specific activity for three experiments are represented as an average with SEM error bars. FIG. 6b depicts the bacterial burden in mice with mastitis treated with recombinant peptidoglycan hydrolases. Colony Forming Units (CFUs) from infected murine mammary glands following a single treatment with 50 μl of 25 μM peptidoglycan hydrolase (1.25 nmol). Each data point represents the average of duplicate bacterial platings. The horizontal bars represent the average CFU/mg for each group. FIG. 6c illustrates the TNFα response in mice with mastitis that were treated with peptidoglycan hydrolases. Data represents a minimum of 7 measurements in duplicate. Log TNFα was used for statistical analysis. Single asterisks indicate a significant difference from buffer control (p<0.05); double asterisks indicate a significant difference from the parental enzyme (p<0.05).
FIG. 7 depicts a turbidity reduction assay of select peptidoglycan hydrolases against S. aureus Newbould 305. Bacterial cells were resuspended in lysis buffer to an OD600nm of 1.0 and lysed with 1 μM final concentrations of each peptidoglycan hydrolase. The maximum rate of ΔOD of three experiments are represented as an average with error bars representing SEM. Double asterisks indicate significant difference from parental. Mean comparisons were performed with one way ANOVA (P=3.3×10^−5) with t test post hoc analysis with Sidák adjusted alpha (p<0.01).

[2] = tested on: S. aureus Newbould 305; assay: Murine model of mastitis, bacterial load; assay type: in vivo, C57BL6/SJL mice; conditions: for bacterial load / clearance of mammary glands (in words): single 1.25 nmoles intramammary infusion 30 minutes post infection, 18 h
Method: as §1
To evaluate the efficacy of purified, individually administered peptidoglycan hydrolases in a murine model of bovine mastitis, female C57BL6/SJL mice were challenged by the intramammary route with 100 CFU S. aureus Newbould 305 in 50 μl buffer. A single 1.25 nmoles intramammary infusion of each desired peptidoglycan hydrolase (50 μl of a 25 μM solution) or 50 μl PBS was given 30 minutes post infection [with up to six glands treated per animal, each gland receiving a unique treatment] as described earlier (Schmelcher et al. 2012. Appl. Environ. Microbiol. 78:2297-2305; Kerr et al. 2001. Nat. Biotechnol. 19:66-70). Dams were euthanized 18 h post infusion, the mammary glands were aseptically dissected, and portions of the gland were used for determination of bacterial load and TNFα concentrations, as described previously (Schmelcher et al., supra).
Statistical analysis: The variables were analyzed as two-factor mixed models with Treatment as the factor and Mouse as random Blocks. This model […] within mouse correlations. Log(TNFα) was used. The variance grouping technique was used for log CFU and log TNFα to correct for variance heterogeneity. Means comparisons were done with Sidak adjusted p-values so that the experiment-wise error was 0.05. Log(TNFα) is back-transformed to the original units for graphing.

[3] = tested on: intracellular S. aureus strain UAMS-1 in murine calvaria; assay: Ex vivo neonatal mouse calvaria intracellular eradication; assay type: cell-based
Method: (§2) Neonatal mouse whole calvaria were treated for 4 hours with chimeric peptidoglycan hydrolases or buffer alone, 24 hours post inoculation with GFP-expressing S. aureus. Calvaria were embedded in freeze media, sectioned, and subjected to fluorescence imaging. The image shown is a representative figure for triplicate sections of three separate calvaria. FIG. 8b depicts fluorescence intensity from these sections measured in ImageJ and defined as arbitrary fluorescence standardized to the untreated control. Error bars represent SEM of four replicate experiments. FIG. 8c depicts ex-vivo intracellular S. aureus eradication. Infected calvaria were homogenized and CFU were counted post treatment. Error bars represent SEM. FIG. 8d depicts a murine model of staphylococcal osteomyelitis. C57BL/6J mice were anesthetized and their femurs were surgically exposed. A trough was drilled through the bone cortex and the damaged bone sites were inoculated with 1×10^3 CFU S. aureus in agarose beads. After 24 hours, mice were treated (i.m. to site of infection) twice in a 24 h period with PBS or 5 mg/kg of triple fusion K-L or K-L-PTD1. The femurs were removed, homogenized, and plated to quantify the bacterial load. Bars indicate the average CFU recovered (N=6). […] Asterisks represent statistical significance as determined by one-way ANOVA followed by Tukey's posthoc test.
To examine the intracellular uptake and eradication in murine osteoblast-containing tissue samples, both ex vivo calvaria (skull cap), and in vivo femur injury models were tested. Calvaria were isolated from neonatal mice and infected with UAMS-1 strain of S. aureus (1×10^6 bacteria/calvaria) for 2 h at 37° C. in osteoblast growth medium in the absence of antibiotics. Following 3× washes with PBS, calvaria were exposed to 50 μg/ml of gentamicin for 15 min to kill extracellular bacteria and further cultured in gentamicin containing osteoblast growth media. After 24 h later, calvaria were treated with peptidoglycan hydrolases (5 μg/ml) or gentamicin only control for 2 h. Lysis buffer containing 0.05% trypsin and 0.25% Triton X-100 was used to homogenize the calvaria, the homogenates were quantitatively plated on LB agar plates, and the CFU were enumerated after 24 h. The data represents triplicate determinants of two separate experiments.
Calvaria were isolated, and infected as described above using GFP-tagged UAMS-1 strain of S. aureus. Two hours post-infection, calvaria were washed with PBS followed by a 15 minutes treatment with 50 μg/ml gentamicin to kill extracellular bacteria. 24 hours post-infection, calvaria were treated with 5 μg/ml peptidoglycan hydrolases or gentamicin only control for two hours and embedded in Tissue-Tek O.C.T compound (Sakura, Torrance, Calif.). […]

[4] = tested on: S. aureus; assay: Murine model of staphylococcal osteomyelitis (femur); assay type: in vivo, C57BL/6J mice; conditions: 5 mg/kg i.m. at site of infection, twice in 24 h, N=6
Method: as §2, with “A trough was drilled through the bone cortex and the damaged bone sites were inoculated with 1×10^3 CFU S. aureus in agarose beads. After 24 hours, mice were treated (i.m. to site of infection) twice in a 24 h period with PBS or 5 mg/kg of triple fusion K-L or K-L-PTD1.” left out, “load.” for “load. Bars indicate the average CFU recovered (N=6).”
We utilized a previously described (Marriott, supra) murine model of staphylococcal osteomyelitis that reproduces the clinical and gross pathological phases of inflammatory bone diseases, such as human post-traumatic osteomyelitis. […] Asterisks represent statistical significance as determined by one-way ANOVA followed by Tukey's posthoc test.

[5] = tested on: TNFα; assay: Murine model of mastitis, TNFα response; assay type: in vivo, C57BL6/SJL mice; conditions: mice with mastitis
Method: as §1, with “(p<0.05). […]” for “(p<0.05).”
Statistical analysis: The variables were analyzed as two-factor mixed models with Treatment as the factor and Mouse as random Blocks. […]

[6] = tested on: intracellular S. aureus Newbould 305 in bovine mammary epithelial cell line (MAC-T); assay: Intracellular S. aureus eradication assay in MAC-T cells; assay type: cell-based; conditions: 25 μg in 1 ml DMEM, 2.5 h
Source text: (§3) FIGS. 5a-5e depict peptidoglycan hydrolase-protein transduction domain (PGH-PTD) eradication of intracellular S. aureus in cultured cells. Cultured cells were infected, treated with gentamicin to kill extracellular S. aureus, and then treated with the peptidoglycan hydrolases indicated. All results are standardized to the gentamicin (GENT) only control. Nomenclature of the peptidoglycan hydrolase constructs is as in FIG. 1. Asterisks indicate statistical significance detected with single factor ANOVA (α=0.05) with paired t-test posthoc analyses α=0.05 adjusted with Sidák correction for multiple comparisons (for all cases p<0.01). […] Error bars represent SEM. […] Yellow staining in the combined panel represents intracellular co-localization (in a single plane as determined by z-stack analysis) of both S. aureus and K-L-PTD1 (blue arrow). […]
(§4) Three similar intracellular S. aureus eradication assays from three different labs were optimized for (A) a cultured bovine mammary epithelial cell line (MAC-T, Nexia Biotechnologies, Quebec, Canada; Almeida, supra), (B) primary C57BL/6 mouse-derived osteoblasts (mOBs) (McCall et al. 2008. J. Bone Miner. Res. 23: 30-40) or (C) human brain microvascular endothelial cells (hBMEC; Stins, supra). […] The cell lysate was subjected to serial dilution plating, and the resultant CFUs were counted and normalized to the gentamicin control for each assay. […]

[7] = tested on: intracellular S. aureus strain ISP479C in human brain microvascular endothelial cells (hBMEC); assay: Intracellular S. aureus eradication assay in hBMEC; assay type: cell-based; conditions: 5 μg/ml, 1 h
Source text: as §3, §4

Substance | turbidity reduction (in vitro lytic) activity [1] | greater CFU reduction than triple fusion K-L in the mastitis model ([2]; in vivo, compared with triple fusion K-L) | bacterial load / clearance of mammary glands (in words) [2] | live bacteria (CFU) recovered from calvaria ([3]; 5 μg/ml for 2 h, homogenized calvaria) | elimination of GFP-labeled intracellular S. aureus (fluorescence) ([3]; 5 μg/ml, 24 hours post-infection, sectioned calvaria) | bacterial load in femur compared to no treatment [4] | TNFα response (in words) [5] | intracellular S. aureus CFUs relative to gentamicin only control [6] | intracellular S. aureus CFUs relative to gentamicin only control [7]
K-L-PTD1: triple fusion K-L with C-terminal PTD 1 (Antp 43-58); SEQ ID NO:53, protein SEQ ID NO:54 | reduced the in vitro activity | ~3 orders of magnitude | clearance of the mammary gland to a level equivalent to that of lysostaphin alone or L-PTD1 | able to reduce the number of live bacteria recovered from sectioned calvaria | able to eliminate GFP-labeled intracellular S. aureus strain UAMS-1 from murine calvaria | significantly reduced bacterial load as compared to no treatment | – | – | –
L-PTD1: lysostaphin-His6 with C-terminal PTD 1 (Antp 43-58); SEQ ID NO:9 | reduced the in vitro activity | – | further decreased the mean bacterial load | – | – | – | further decreased the mean bacterial load and TNFα concentration | – | –
1-Sigma: commercial lysostaphin (Sigma-Aldrich, St. Louis, Mo.) | – | – | – | – | – | – | – | Neither commercial lysostaphin (1-Sigma; Sigma-Aldrich, St. Louis, Mo.) nor the C-terminal His6-tagged lysostaphin (construct 1) were able to decrease the intracellular CFUs | Neither commercial lysostaphin (1-Sigma; Sigma-Aldrich, St. Louis, Mo.) nor the C-terminal His6-tagged lysostaphin (construct 1) were able to decrease the intracellular CFUs
